# According to patent US20200352912A1, “ANTIMICROBIAL COMPOSITIONS AND METHODS OF USING THE SAME” (The Board Of Supervisors Of Louisiana State University And …, priority 2018, published 2020):
# How the values were obtained:
# [1] = 10 mg/kg body weight; cited from earlier work
# DP = DP (Homo sapiens, UniProt Q13258); details: cited from earlier work
# [2] = test system: pre-formed dual-species biofilm; test: pre-formed mature biofilm (XTT, CFU); type: cell-based, C. albicans and S. aureus; details: 100 and 200 μg/ml
# Procedure: The effect of L-161, 982 on pre-formed mature biofilms was tested. Mono- and dual-species C. albicans and/or S. aureus biofilms were grown on 96-well plates for 24 h before being treated with the indicated concentration of L-161, 982 for a further 24 h. After treatment, metabolic activity of biofilms was quantified by the XTT assay (A) and then biofilms were disrupted to determine live colony forming units (CFU) (B). The results are cumulative of three independent experiments with duplicate samples. Statistics were performed using One-way ANOVA with the Tukey post-hoc test for the XTT assay. The Mann-Whitney U test was used to analyze CFU data. Significance is indicated as follows: ns—not significant, *P<0.05; *** P<0.001. Error bars represent standard deviation.
# (§1) Following growth as described above, microbes were washed in phosphate-buffered saline (PBS) by centrifugation, counted on a hemocytometer, and adjusted to 2×10^7 CFU/ml in RPMI buffered with MOPS (165 mM). […]
# (§2) The XTT reduction assay was used to determine the metabolic activity of biofilms following treatment with L-161, 982 (17). Briefly, wells were washed once in PBS, and plates incubated at 37° C. for 2 h with 200 μl XTT working reagent (0.5 mg/ml XTT and 1 μM Menadione) and the resulting absorbance measured at 490 nm on a microplate spectrophotometer. […]
# [3] = test system: S. aureus mono-species biofilm; test: biofilm formation on polystyrene (XTT, CFU); type: cell-based, Staphylococcus aureus
# Procedure: (§3) The effect of L-161,982 on biofilm formation was tested. Mono- and dual-species C. albicans and/or S. aureus biofilms were grown on 96-well plates for 24 h with the indicated concentration of L-161, 982. After incubation, metabolic activity of biofilms was quantified by the XTT assay (A) and then biofilms were disrupted to determine live colony forming units (CFU) (B). The results are cumulative of three independent experiments with duplicate samples. Statistics was performed using One-way ANOVA with the Tukey post-hoc test for the XTT assay. The Mann-Whitney U test was used to analyze CFU data. Significance is indicated as follows: ns—not significant, *P<0.05; *** P<0.001. Error bars represent standard deviation.
# Following growth as described above, microbes were washed in phosphate-buffered saline (PBS) by centrifugation, counted on a hemocytometer, and adjusted to 2×10^7 CFU/ml in RPMI buffered with MOPS (165 mM). For monomicrobial biofilms, 50 μl of adjusted C. albicans or S. aureus culture was added to each well of a sterile 96-well cell culture polystyrene microtiter plate (1×10^6 CFU per well); to this, 50 μl of sterile RPMI+MOPS was added. For polymicrobial biofilms, 50 μl of each organism was added per well (1×10^6 CFU of each organism per well). Plates were incubated for 24 h at 37° C. to induce biofilm formation. Following confirmation of mature biofilm growth by macro- and microscopic examination, plates were washed once with 200 μl sterile saline and then 200 μl RPMI+MOPS containing L-161, 982 at various concentrations (6.25-200 μg/ml) added to each well. L-161, 982-free RPMI+MOPS was added to wells with and without microbes to serve as positive and negative controls, respectively. […]
# as §2
# [4] = test system: LPS-activated human macrophages; details: 100 nM; cited from earlier work
# [5] = test system: C. albicans mono-species biofilm; test: biofilm formation on polystyrene (XTT, CFU); type: cell-based, Candida albicans; details: treated vs untreated mono-species biofilms
# Procedure: as §3, §1, §2
# HCA-7 colon cancer cells = details: 10 μM; cited from earlier work
# S. aureus = test: cytoplasmic leakage assay (OD260); type: cell-based, Staphylococcus aureus; details: 50 μg/ml
# Procedure: S. aureus was grown shaking at 37° C. in PBS alone, with 50 μg/ml L-161, 982 or with 4 μg/ml Chlorhexidine (positive control). The appearance of nucleic acid in culture supernatants was measured by OD260 at the indicated times. Data are expressed as change in absorbance at 260 nm compared to control (AA260). Data presented is cumulative of two independent experiments.
# Cytoplasmic leakage assay. Cytoplasmic leakage assays were performed as previously described with modifications (11). Briefly, S. aureus was cultured to mid-log phase in TSB with shaking at 37° C. Bacteria were then harvested and resuspended in PBS to a concentration of ˜108/ml. Cultures were treated with L-161,982 (50 μg/ml) or Chlorhexidine (4 μg/ml), a positive control, and incubated at 37° C. with shaking. Culture supernatants were monitored over time for cytoplasmic leakage via OD260 measurements using a spectrophotometer (Biomate 3S, Thermo Scientific). For this, aliquots were removed at 0.5, 1, 2, and 3 hours and centrifuged for 5 min at 10,000×g at room temperature to remove cellular debris before taking OD260 measurements. Negative control cultures containing no drug were used to calculate change in absorbance (AA260) at each time point.
# EP3 = EP3 (Homo sapiens, UniProt P43115); details: cited from earlier work
# Chain of EP3 (P43115 whole entry): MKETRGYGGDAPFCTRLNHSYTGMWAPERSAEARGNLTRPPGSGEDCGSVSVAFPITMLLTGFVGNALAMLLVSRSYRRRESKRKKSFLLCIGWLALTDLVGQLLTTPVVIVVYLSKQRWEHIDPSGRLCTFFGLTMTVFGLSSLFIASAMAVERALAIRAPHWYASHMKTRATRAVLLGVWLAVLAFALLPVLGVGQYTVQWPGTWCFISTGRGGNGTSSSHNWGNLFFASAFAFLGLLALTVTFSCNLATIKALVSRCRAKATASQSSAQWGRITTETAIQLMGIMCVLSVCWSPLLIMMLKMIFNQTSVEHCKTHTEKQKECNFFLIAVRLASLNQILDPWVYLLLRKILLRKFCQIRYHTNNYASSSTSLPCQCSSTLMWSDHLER
# Chain of DP (Q13258 whole entry): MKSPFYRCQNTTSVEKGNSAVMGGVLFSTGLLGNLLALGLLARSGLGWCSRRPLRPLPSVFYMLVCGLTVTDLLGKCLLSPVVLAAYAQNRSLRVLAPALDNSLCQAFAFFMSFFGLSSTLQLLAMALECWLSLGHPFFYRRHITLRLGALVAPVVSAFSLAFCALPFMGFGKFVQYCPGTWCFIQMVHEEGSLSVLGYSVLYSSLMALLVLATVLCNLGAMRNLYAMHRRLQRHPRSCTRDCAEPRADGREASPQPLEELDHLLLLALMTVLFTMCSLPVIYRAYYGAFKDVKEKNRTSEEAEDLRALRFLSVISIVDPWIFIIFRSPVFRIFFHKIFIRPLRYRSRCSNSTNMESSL
smiles,measurement,setting,value
"CCCCc1nn(-c2ccccc2C(F)(F)F)c(=O)n1Cc1ccc(-c2ccccc2S(=O)(=O)NC(=O)c2sccc2C)cc1 [L-161, 982, N-[[4′-[[3-Butyl-1,5-dihydro-5-oxo-1-[2-(trifluoromethyl)phenyl]-4H-1,2,4-triazol-4-yl]methyl][1,1′-biphenyl]-2-yl]sulfonyl]-3-methyl-2-thiophenecarboxamide]",toxic effects,[1],no apparent toxic effects
same,Ki,DP,5.1 µM
same,S. aureus CFUs recovered from pre-formed dual-species biofilm,[2],no CFUs were recovered
same,"CFUs of S. aureus, biofilm formation",[3]; 6.25 to 25 μg/ml,significantly reduced
same,metabolic activity (XTT) during biofilm formation,"[3]; all concentrations tested, 24 h",significantly inhibited
same,"CFUs of S. aureus, biofilm formation",[3]; concentrations >50 μg/ml,no viable cells were recovered
same,effect on anti-inflammatory action of PGE2,[4],reverses the anti-inflammatory action of PGE2
same,metabolic activity during biofilm formation,[5],no significant inhibition
same,effect on PGE2-induced cell proliferation,HCA-7 colon cancer cells,blocks PGE2-induced cell proliferation
same,OD260 values of culture supernatants,S. aureus,did not increase
same,Ki,EP3,1.9 µM
